Test results: US20080138812A1, “Screening Method For Competitive Hiv Rt Inhibitors” (priority 2005, published 2008)

Experiments:
[1] = test system: wild-type HIV-1 (LAI strain); experiment: anti-viral cellular assay, HIV-infected MT4 cells, MTT readout, wild-type virus; format: cell-based; details: Human immunodeficiency virus 1, 120 h, five days
Experimental: The test compounds are examined for anti-viral activity in a cellular assay performed according to the following procedure.
(§1) HIV- or mock-infected MT4 cells were incubated for five days in the presence of various concentrations of the test compound. At the end of the incubation period, the replicating virus in the control cultures had killed all HIV-infected cells in the absence of any inhibitor. Cell viability was determined by measuring the concentration of MTT, a yellow, water soluble tetrazolium dye that is converted to a purple, water insoluble formazan in the mitochondria of living cells only. Upon solubilization of the resulting formazan crystals with isopropanol, the absorbance of the solution was monitored at 540 nm. The values correlate directly to the number of living cells remaining in the culture at the completion of the five day incubation. The inhibitory activity of the compound was monitored on the virus-infected cells and was expressed as EC50 and EC90. These values represent the amount of the compound required to protect 50% and 90%, respectively, of the cells from the cytopathogenic effect of the virus. […] Wherever results are reported as e.g. pEC50 or pCC50 values, the result is expressed as the negative logarithm of the result expressed as EC50 or CC50 respectively.

[2] = test system: site-directed mutant of wild-type HIV-1 (HXB2) that contains the K103N and Y181C mutation; experiment: anti-viral cellular assay, MT4 cells, MTT readout, NNRTI-resistant mutant virus; format: cell-based; details: Human immunodeficiency virus 1, HXB2, MT4
Experimental: as §1, with “virus. The toxicity of the compound was measured on the mock-infected cells and was expressed as CC50, which represents the concentration of compound required to inhibit the growth of the cells by 50%.” for “virus.”, “respectively. […]” for “respectively.”

HIV RT = HIV RT (Human immunodeficiency virus type 1 group M subtype B, UniProt P04585); experiment: enzyme kinetics studies (1/v versus 1/[dTTP]); format: biochemical; details: 40-3 μM dTTP, 2-0 μM compound, poly(rA)oligo(dT); lines cross at Y-axis intercept
Experimental: The enzyme kinetics studies were carried out using a protocol involving a 4×5 matrix of varying substrate and inhibitor concentrations over ranges of 40-3 μM of dTTP and 2-0 μM of compound 1.
The reaction mixtures (50 μl) further contained 50 mM Tris.HCl (pH 7.8), 5 mM dithiothreitol, […], 500 μM EDTA, 150 mM KCl, 5 mM MgCl2, 0.15 mM of the template/primer poly(rA)oligo(dT) and 0.06% Triton X-100.
The reaction mixtures were incubated at 37° C. for 15 min, at which time 100 μl of calf thymus DNA (150 pg/ml), 2 ml of Na4P2O7 (0.1 M in 1 M HCl), and 2 ml of trichloroacetic acid (10% v/v) were added. The solutions were kept on ice for 30 min, after which the acid-insoluble material was washed and analyzed for radioactivity. When the reciprocal of the reaction velocity (1/v) is plotted against the reciprocal of the substrate concentration (1/[dTTP]) in the presence of different concentrations of compound 1, the graph (See FIG. 1) is obtained.

[3] = target: T1, HIV Reverse Transcriptase (Human immunodeficiency virus type 1 group M subtype B, UniProt P04585); experiment: in vitro inhibition of HIV reverse transcriptase in presence and absence of ATP or other nucleoside phosphates (kit TRK 1022); format: biochemical
T1 construct: purchased Amersham Life Sciences TRK 1022
Experimental: The assay was run using kit TRK 1022™ (Amersham Life Sciences) according to the manufacturer's instructions with slight modifications. Test compounds were diluted in steps of ¼ in 100% DMSO and subsequently diluted 1/50 in Medium A (RPMI 1640+10% fetal calf serum, […] gentamycin).
In each experiment three conditions were tested: wells filled with 25 μl of the above compound solutions, wells filled with 25 μl 2% DMSO in Medium A (RO) and wells filled with 100 μl Stopsolution and 25 μl DMSO in Medium A (RI). To each well was added 25.5 μl master mix (5 μl primer/template beads, 10 μl assay buffer, 0.5 μl tracer (50 μM [3H]-dTTP), 5 μl HIV RT enzyme solution (15 mU/μl), 5 μl Medium A). The plates were sealed, and incubated during 4 hours at 37° C. Subsequently, 100 μl stop solution was added to each well (except RI). The radioactivity was counted in a TopCount™.
For testing compound inhibition in the presence of ATP the same protocol as above was used but the Medium A in the master mix was replaced with Medium A containing 320 mM ATP.
The procedures of example 1 were repeated but ATP was changed by a number of other nucleoside phosphates. The following table lists the tested nucleoside phosphates and the IC50 values in μM of compound 1 obtained in the presence of the concerned nucleoside phosphate.

Cn1c2ccccc2c2c1cc(C#N)c(=O)n2-c1ccc([N+](=O)[O-])cc1 [Compound 1]
EC50 [1]: 45 nM | EC50 [2]: 98 nM | mode of HIV RT inhibition (HIV RT): competitive mode of HIV RT inhibition | IC50 ([3]; in the absence of ATP): 300 nM | IC50 ([3]; in the presence of ADP): 23 nM | IC50 ([3]; in the presence of AMP): 17.8 nM | IC50 ([3]; in the presence of ATP (Medium A in master mix containing 320 mM ATP)): 16 nM | IC50 ([3]; in the presence of ATPbgNH): 24.5 nM | IC50 ([3]; in the presence of ATPgS): 12.4 nM | IC50 ([3]; in the presence of CTP): 114 nM | IC50 ([3]; in the presence of GTP): 70.4 nM | IC50 ([3]; in the presence of PPi): 199 nM | IC50 ([3]; in the presence of UTP): 51.9 nM
